Measured values taken from ChEMBL document CHEMBL6103592, “Discovery of novel thiazole-pleuromutilin derivatives with potent antibacterial activity” (Eur J Med Chem, 2025).
≈ marks a conversion by molar mass, not a printed value. Calls of active or inactive are those of the source. The calls are words filed in the database; no cut-off is given here.

Experiments:
Staphylococcus aureus [1] = assay: Antibacterial activity against methicillin-resistant Staphylococcus aureus ATCC 43300 assessed as reduction in bacterial proteins level at 0.5 to 2 microg/ml measured for 4 hrs; assay type: functional, organism-based; conditions: dose 0.5-2 µg/ml
[2] = Acute toxicity in rat assessed as swelling in uterus at 2000 mg/kg, po measured for 14 days by H and E staining based analysis; assay type: organism-based; conditions: in vivo, 336 h, time 14 day
[3] = Acute toxicity in rat assessed as pathological changes in lung at 2000 mg/kg, po measured for 14 days; assay type: organism-based; conditions: in vivo, 336 h, time 14 day
[4] = Cytotoxicity against human HEK293T cells assessed as cell viability at 200 micromol/L incubated for 24 hrs by CCK-8 assay relative to control; assay type: toxicity, cell-based, HEK-293T; conditions: dose 200 µmol/L, read-out: Activity
[5] = Acute toxicity in rat assessed as absolute spleen weight at 2000 mg/kg, po administered for 7 days followed by readministration after 7 days and measured at 14 days (reference value: 0.53 +/- 0.04 g); assay type: organism-based; conditions: in vivo, 336 h, time 14 day
[6] = Acute toxicity in rat assessed as relative spleen weight at 2000 mg/kg, po administered for 7 days followed by readministration after 7 days and measured at 14 days (reference value: 0.27 +/- 0.02 %); assay type: organism-based; conditions: in vivo, 336 h, time 14 day
Enterococcus faecalis = assay: Antibacterial activity against Enterococcus faecalis assessed as inhibition of visible bacterial growth incubated for 24 hrs by CLSI based broth microdilution method; assay type: functional
Mycoplasma = assay: Antibacterial activity against Mycoplasma F3 assessed as inhibition of visible bacterial growth incubated for 24 hrs by CLSI based broth microdilution method; assay type: functional
[7] = Acute toxicity in rat assessed as absolute lung weight at 2000 mg/kg, po measured for 7 days (reference value: 1.12 +/- 0.07g); assay type: organism-based; conditions: in vivo, 168 h, time 7 day
[8] = Acute toxicity in rat assessed as degeneration of glandular epithelial cells at 2000 mg/kg, po measured for 14 days by H and E staining based analysis; assay type: organism-based; conditions: in vivo, 336 h, time 14 day
[9] = Acute toxicity in rat assessed as necrosis of epithelial cells at 2000 mg/kg, po measured for 14 days by H and E staining based analysis; assay type: organism-based; conditions: in vivo, 336 h, time 14 day
[10] = Acute toxicity in rat assessed as animal death at 2000 mg/kg, po measured for 14 days; assay type: organism-based; conditions: in vivo, 336 h, time 14 day
[11] = Acute toxicity in po dosed rat assessed as lethal dose measured for 14 days […]; assay type: organism-based; conditions: in vivo, time 14 day
Staphylococcus aureus [12] = assay: Antibacterial activity against methicillin-resistant Staphylococcus aureus ATCC 43300 assessed as post antibiotic effect at 8 times MIC measured after 1 hr; assay type: functional
Staphylococcus aureus [13] = assay: Antibacterial activity against methicillin-resistant Staphylococcus aureus ATCC 43300 assessed as post antibiotic effect at 1 times MIC measured after 1 hr; assay type: functional
[14] = Acute toxicity in rat assessed as reduction in food intake at 2000 mg/kg, po measured for 14 days; assay type: organism-based; conditions: in vivo, 336 h, time 14 day
Staphylococcus aureus [15] = assay: Antibacterial efficacy against methicillin-resistant Staphylococcus aureus ATCC 43300 infected in cyclophosphamide-induced neutropenic systemic infection Kunming mouse model assessed as effect on survival rate at 20 mg/kg, iv pretreated with cyclophosphamide for 1 hr followed by compound addition and measured after 7 days; assay type: functional, organism-based; conditions: time 7.0 day
[16] = Acute toxicity in rat assessed as relative uterus weight at 2000 mg/kg, po measured for 7 days (reference value: 0.27 +/- 0.09%); assay type: organism-based; conditions: in vivo, 168 h, time 7 day
[17] = Acute toxicity in rat assessed as relative kidney weight at 2000 mg/kg, po measured for 7 days (reference value: 0.83 +/- 0.08%); assay type: organism-based; conditions: in vivo, 168 h, time 7 day
Staphylococcus aureus [18] = assay: Bactericidal activity against methicillin-resistant Staphylococcus aureus ATCC 43300 assessed as increase in colony forming unit count at 1 times MIC incubated after 8 hrs by time-kill assay; assay type: functional, organism-based
[19] = Acute toxicity in rat assessed as absolute liver weight at 2000 mg/kg, po administered for 7 days followed by readministration after 7 days and measured at 14 days (reference value: 8.43 +/- 0.43 g); assay type: organism-based; conditions: in vivo, 336 h, time 14 day
[20] = Acute toxicity in rat assessed as absolute uterus weight at 2000 mg/kg, po administered for 7 days followed by readministration after 7 days and measured at 14 days (reference value: 0.52 +/- 0.18 g); assay type: organism-based; conditions: in vivo, 336 h, time 14 day
Staphylococcus aureus [21] = assay: Bactericidal activity against methicillin-resistant Staphylococcus aureus ATCC 43300 at 1 to 6 times MIC incubated upto 24 hrs by time-kill assay; assay type: functional, organism-based
[22] = Acute toxicity in rat assessed as absolute kidney weight at 2000 mg/kg, po measured for 7 days (reference value: 1.60 +/- 0.16 g); assay type: organism-based; conditions: in vivo, 168 h, time 7 day
[23] = Acute toxicity in rat assessed as relative liver weight at 2000 mg/kg, po measured for 7 days (reference value: 4.36 +/- 0.23 %); assay type: organism-based; conditions: in vivo, 168 h, time 7 day
[24] = Acute toxicity in rat assessed as relative heart weight at 2000 mg/kg, po measured for 7 days (reference value: 0.40 +/- 0.06%); assay type: organism-based; conditions: in vivo, 168 h, time 7 day
Escherichia coli = assay: Antibacterial activity against Escherichia coli ATCC 25922 assessed as inhibition of visible bacterial growth incubated for 24 hrs by CLSI based broth microdilution method; assay type: functional
Staphylococcus aureus [25] = assay: Antibacterial activity against Staphylococcus aureus ATCC 25923 assessed as inhibition of visible bacterial growth incubated for 24 hrs by CLSI based broth microdilution method; assay type: functional
[26] = Acute toxicity in rat assessed as absolute kidney weight at 2000 mg/kg, po administered for 7 days followed by readministration after 7 days and measured at 14 days (reference value: 1.60 +/- 0.16 g); assay type: organism-based; conditions: in vivo, 336 h, time 14 day
[27] = Acute toxicity in rat assessed as tremors at 2000 mg/kg, po measured for 14 days; assay type: organism-based; conditions: in vivo, 336 h, time 14 day
[28] = Acute toxicity in rat assessed as absolute heart weight at 2000 mg/kg, po administered for 7 days followed by readministration after 7 days and measured at 14 days (reference value: 0.77 +/- 0.12 g); assay type: organism-based; conditions: in vivo, 336 h, time 14 day
Staphylococcus aureus [29] = assay: Antibacterial efficacy against methicillin-resistant Staphylococcus aureus ATCC 43300 infected in cyclophosphamide-induced neutropenic systemic infection Kunming mouse model assessed as inflammatory cell infiltration in lung at 20 mg/kg, iv pretreated with cyclophosphamide for 1 hr followed by compound addition and measured after 5 days by light microscopic analysis; assay type: functional, organism-based; conditions: time 5.0 day
[30] = Acute toxicity in rat assessed as decrease in locomotor activity at 2000 mg/kg, po measured for 14 days; assay type: organism-based; conditions: in vivo, 336 h, time 14 day
[31] = Acute toxicity in rat assessed as absolute liver weight at 2000 mg/kg, po measured for 7 days (reference value: 8.43 +/- 0.43 g); assay type: organism-based; conditions: in vivo, 168 h, time 7 day
Staphylococcus aureus [32] = assay: Drug resistance, ratio of MIC for methicillin-resistant Staphylococcus aureus ATCC 43300 after 21 passages to MIC for methicillin-resistant Staphylococcus aureus ATCC 43300 during first exposure; assay type: functional
[33] = Cytotoxicity against human HEK293T cells assessed as cell viability incubated for 24 hrs by CCK-8 assay; assay type: toxicity, cell-based, HEK-293T
[34] = Acute toxicity in rat assessed as absolute spleen weight at 2000 mg/kg, po measured for 7 days (reference value: 0.53 +/- 0.04g); assay type: organism-based; conditions: in vivo, 168 h, time 7 day
[35] = Acute toxicity in rat assessed as reduction in water consumption at 2000 mg/kg, po measured for 14 days; assay type: organism-based; conditions: in vivo, 336 h, time 14 day

SMILES: C=C[C@]1(C)C[C@@H](OC(=O)CSc2nc(OC(=O)c3ccc(C(C)(C)C)cc3)cs2)[C@]2(C)[C@H](C)CC[C@]3(CCC(=O)[C@H]32)[C@@H](C)[C@@H]1O
- Activity (Staphylococcus aureus [1]): Active
- Activity [2]: Non-toxic
- Activity [3]: Non-toxic
- viability at 24 h, 200 µM [4]: 60%
- Activity [5]: 0.53 g
- Activity [6]: 0.25%
- MIC (Enterococcus faecalis): > 32 µg/mL
- MIC (Mycoplasma): 0.125 µg/mL (≈ 0.191 µM)
- Activity [7]: 1.13 g
- Activity [8]: Non-toxic
- Activity [9]: Non-toxic
- Activity [10]: Non-toxic
- LD50 at 336 h [11]: 2000 mg/kg
- PAE (Staphylococcus aureus [12]): 2.27 h
- PAE (Staphylococcus aureus [13]): 0.801 h
- Activity [14]: Toxic
- Activity (Staphylococcus aureus [15]): Active
- Activity [16]: 0.27%
- Activity [17]: 0.8%
- Activity (Staphylococcus aureus [18]): Active
- Activity [19]: 8.57 g
- Activity [20]: 0.5 g
- Activity (Staphylococcus aureus [21]): Dose-dependent-effect
- Activity [22]: 1.54 g
- Activity [23]: 4.34%
- Activity [24]: 0.39%
- MIC (Escherichia coli): > 32 µg/mL
- MIC (Staphylococcus aureus [25]): 0.25 µg/mL (≈ 0.382 µM)
- Activity [26]: 1.63 g
- Activity [27]: Non-toxic
- Activity [28]: 0.78 g
- Activity (Staphylococcus aureus [29]): Active
- Activity [30]: Non-toxic
- Activity [31]: 8.5 g
- Ratio (Staphylococcus aureus [32]): 16
- IC50 at 24 h [33]: > 200 µM
- Activity [34]: 0.53 g
- Activity [35]: Toxic
